Results as given in patent publication US6156765A, “Method of treating and preventing vasospasm” (The United States of America as represented by the …, priority 1996, dated 2000).
“And” between values parts separate entries of the source, which are not always exact repeats. Identical values can stand only once.

Legend:
[1] = Serum iron concentration in treated animals; format: in vivo, cynomologous macaques; details: drug-treated animals, 70 mg/kg/day
Experimental: (§1) Eleven (11) cynomologous macaques (8 male and 3 female, weight 3.0-5.9 kg.) were randomly divided into 2 groups. Craniotomy was performed in all animals and autologous clot was placed around the right middle cerebral artery (R MCA) after the arachnoid membrane was removed, as described elsewhere [Pluta et al., J. Neurosurg. 77:740-748 (1992)]. Six animals (3 male and 3 female) received IV infusion of 2,2'-dipyridyl (70 mg/kg/day) continuously for 14 days. Between postoperative days 7 and 10, cerebral arteriography was used to assess the presence and degree of vasospasm using methods previously described [Pluta et al., J. Neurosurg. 77:740-748 (1992)]. The five control animals (all male) received IV infusion of saline in a volume equal to that delivered in the experimental group (10-15 cc/kg/day). Two pilot animals were also used in an initial phase in order to establish an effective experimental dose. One received 44 mg/kg/day of IV 2,2'-dipyridyl, and the other received up to 100 mg/kg/8 hrs of IV 2,2'-dipyridyl.
Plasma samples were collected on days 0 and 7 of each experiment and were analyzed by Maryland Medical Pathology (Rockville, Md.) for serum iron and percent transferrin saturation. Due to the molecular complexity of iron chelators, direct assays for these drugs are not available. […]

[2] = tested on: transferrin; assay: Percent transferrin saturation in treated animals; format: in vivo, cynomologous macaques
Experimental: as §1
Plasma samples were collected on days 0 and 7 of each experiment and were analyzed by Maryland Medical Pathology (Rockville, Md.) for serum iron and percent transferrin saturation. Due to the molecular complexity of iron chelators, direct assays for these drugs are not available.
Data are reported as means of measurements by three individuals ±SEM and compared using an unpaired […] test. Significance was accepted at p<0.05.

[3] = tested on: right middle cerebral artery (R MCA); assay: Arteriographic vasospasm of the R MCA in primate model of SAH (autologous clot placement); format: in vivo, cynomologous macaques; details: for arteriographic vasospasm: 70 mg/kg/day
Experimental: as §1
Each monkey underwent arteriographic study of the R MCA 3 to 21 days before surgery and 7 to 10 days after clot placement [Pluta et al., J. Neurosurg. 77:740-748 (1992)]. Under general anesthesia (ketamine 10 mg/kg and isoflurane) and sterile conditions, a cutdown of the right femoral artery was performed and a No. 3 French catheter was advanced to the right ICA. Fluoroscopy (C-arm; OEC) and intravenous contrast (2 cc Conray, 60%; Malinkrodt Medical, St. Louis, Mo.), were used to acquire subtraction images of the vessel. A radiopaque ruler was placed in the field to allow standardized measurements.
(§2) All studies were performed in the standard anteroposterior projection (AP). During the arteriography, the end-tidal CO2 was maintained at 40 mm Hg and core body temperature was maintained at 37 degrees Celsius using a heating pad. Blood pressures were monitored during all procedures.
Placement of Subarachnoid Clot and Indwelling Intravenous Catheter
As in previous studies [Pluta et al., J. Neurosurg. 77:740-748 (1992)], each animal was anesthetized as follows. Each monkey was given an injection of ketamine (10 mg/kg IM), atropine sulfate (0.05 mg/kg IM), and sodium thiopental (25 mg/kg IV). The animals were intubated and ventilated with isoflurane (0.5%-1.0%) and 100% O2 and paralyzed with pancuronium (0.1 mg/kg). Each animal was hyperventilated to an end-tidal CO2 of 30 to 40 mm Hg.
Each animal was placed in the supine position for a right frontotemporal craniotomy. Under sterile conditions, the dura was opened and the R MCA was identified in the sylvian fissure. Using the operating microscope, the arachnoid membrane over the R MCA was dissected from the trifurcation to the origin of the vessel at the ICA bifurcation. 8-10 cc of autologous clotted arterial blood obtained by an assistant via a left femoral cutdown was then placed along the length of the exposed vessel. The dura was then closed in a watertight fashion, followed by the muscle and skin layers.
Each animal was then repositioned for placement of a 6.6 French Broviac catheter in the left femoral vein. […] The distal end of the catheter was passed subcutaneously to the midscapular region and secured. Each monkey was fitted in a jacket containing an infusion pump (Disetronic Medical Systems, Plymouth, Minn.) which delivered 70 mg/kg (60 cc/24 hours) of the 2,2'-dipyridyl solution. Each monkey was sedated daily with ketamine (10 mg/kg IM) to change the delivery pump. […]

[4] = tested on: liver, kidney, brain and other tissues; assay: Gross and microscopic anatomic pathology; format: in vivo, cynomologous macaques; set-up: key to Toxicity Liver: L+: swelling of hepatocytes; L++: degeneration; L+++: lipidosis (#73, #105), regeneration (885N); details: IV 70 mg/kg/day for 14 days
Experimental: as §1
Tissues were studied for gross and microscopic anatomic pathology by Dr. Michael Eckhaus and staff (Veterinary Resources Program, National Center for Research Resources, NIH, Bethesda, Md.).

[5] = Blood pressure monitoring; format: in vivo, cynomologous macaques; details: all animals except pilot animal receiving 100 mg/kg/8 hours; 14-day treatment
Experimental: as §1, §2

[6] = Clinical observations for signs of drug toxicity; format: in vivo, cynomologous macaques
Experimental: as §1
The monkeys were observed daily for changes in weight, feeding, behavior, alertness, and neurologic function. The monkeys also were observed closely for signs of drug toxicity, including tremors, emesis, vomiting, diarrhea, seizures, and CNS depression [Sigma MSDS, CAS #366-18-7, 1994].
Pilot studies were done to determine the experimental dosage. […] The second pilot animal received up to 100 mg/kg/8 hours. […] These two pilot animals were then excluded from further data analysis.

[7] = ferrous iron; cited from earlier work
[8] = Peters et al. 1966; Oubidar et al. 1994; cited from earlier work
[9] = ferric iron; cited from earlier work
[10] = Harada et al. 1992; Vollmer et al. 1991; cited from earlier work
[11] = NO versus oxygen; cited from earlier work
[12] = Afshar et al. 1995; cited from earlier work
[13] = background statement; cited from earlier work
[14] = pilot animal, IV 44 mg/kg/24 hours for 14 days

c1ccc(-c2ccccn2)nc1 [2,2'-dipyridyl]
serum iron, day 7 as compared to day 0 [1]: markedly reduced
percent saturation of transferrin, change in treated animals ([2]; 70 mg/kg/day): decreased
TransFe sat % Day 0 ([2]; individual monkey, day 0, IV 70 mg/kg/day, 70 mg/kg/day): 40% and 32% and 31% and 33%
TransFe sat % Day 7 ([2]; individual monkey, day 7, IV 70 mg/kg/day, 70 mg/kg/day): 2% and 0% and -1% and -2% and -4%
TransFe sat % Day 0, Mean ([2]; mean of table, day 0, IV 70 mg/kg/day): 34 ± 4%
TransFe sat % Day 7, Mean ([2]; mean of table, day 7, p < 0.0001, IV 70 mg/kg/day): -1.2 ± 2%
arteriographic vasospasm ([3]; IV 70 mg/kg/day for 14 days, n=6, postoperative day 7-10): no arteriographic vasospasm
arteriographic vasospasm ([3]; IV 70 mg/kg/day for 14 days, n=6, postoperative day 7-10, listed as DP): no spasm
mean AP area of the proximal portion of the MCA, of the baseline area ([3]; IV 70 mg/kg/day for 14 days, n=6, postoperative day 7-10, mean ± SEM, p<0.0001, control 44.8%±4.6%): 3.9%±4.3
vasospasm (reduction of AP area of R MCA) [3, 14]: 20%
vasospasm grade [3, 14]: mild (reduction in the AP area of the defined segment of the MCA of 12-25%)
brain changes (substantia nigra, cerebellum Purkinje cells) [4]: No brain changes
gross pathology: brain, liver, kidney, lymph nodes, spleen, intestine, gonads, or skeletal or cardiac muscle [4]: no toxicity
kidney pathology (collecting tubules), animals #2 and #5 [4]: Multifocal casts
kidney pathology, animals #1, #3, #4, or #6 [4]: No sign of nephrotoxicity
liver pathology, animals #1, #3, #4, and #5 [4]: Hepato-cellular swelling
liver pathology, animals #2 and #6 [4]: Hepatocellular degeneration
liver pathology, overall [4]: Mild changes
microscopic pathology: brain (substantia nigra and cerebellar Purkinje cells), lymph nodes, spleen, intestine, gonads, or skeletal or cardiac muscle [4]: no toxicity
Toxicity Liver ([4]; individual monkey, 70 mg/kg/day): L+ and L++
blood pressures during preoperative and postoperative arteriography [5]: stable and equivalent blood pressures
toxicity at the effective dose ([6]; 70 mg/kg/day): mild
resolution of tremors and leg weakness, animal #1 ([6]; IV 70 mg/kg/day): ≤ 4 days
resolution of tremors and leg weakness, animal #2 ([6]; IV 70 mg/kg/day): did not resolve in animal #2 by day 14
resolution of tremors and leg weakness, animal #4 ([6]; IV 70 mg/kg/day): ≤ 6 days
toxic symptoms ([6]; animals #1, #2, and #4, IV 70 mg/kg/day for 14 days): mild tremors of the upper and lower extremities, and leg weakness
toxic symptoms ([6]; animals #3, #5, and #6, IV 70 mg/kg/day for 14 days): no toxic symptoms
weight loss, changes in feeding habits, or alertness ([6]; control or treated animals, IV 70 mg/kg/day for 14 days): None
signs of toxicity [6, 14]: no sign of toxicity
symptoms of toxicity ([6]; pilot animal, IV up to 100 mg/kg/8 hours, sacrificed on fourth day of drug delivery): symptoms of toxicity (tremors, emesis, and diarrhea)

CC(=O)N(O)CCCCCNC(=O)CCC(=O)N(O)CCCCCNC(=O)CCC(=O)N(O)CCCCCN [deferoxamine]
deferoxamine-iron stability constant for Fe^+2 [7]: 10^2 to 10^14
CSF levels before toxic systemic effects appear [8]: adequate CSF levels cannot be achieved before toxic systemic effects appear
penetrability of the blood-brain barrier [8]: limited penetrability
deferoxamine-iron stability constant for Fe^+3 [9]: 10^31
success in potential therapies for vasospasm [10]: limited success

Hemoglobin: Hemoglobin has a strong affinity for NO
binding to NO more readily than to oxygen [11]: 1,500 fold

nitric oxide [NO]
effect of intracarotid infusion on vasospasm [12]: reversal of vasospasm

oxyhemoglobin: the clinically-relevant vasospastic agent
vasospastic activity [13]: vasospastic
